# Measurements: article PMC3195835 (International journal of pharmaceutics, 2011)
# Key:
# MRP2 [1] = molecular target: T1, MRP2 (Homo sapiens, UniProt Q92887); assay: in vitro
# P-gp [2] = molecular target: T2, P-gp (Homo sapiens, UniProt P08183); assay: in vitro; conditions: MDCK-MDR1
# [3] = ref Allen et al., 2000, Zhanel and Noreddin, 2001, cited from earlier work
# MDCKII-MRP2 cells [4] = assay: Cell proliferative; format: cell-based, canine; conditions: 150min
# MDCKII-MDR1 cells [5] = assay: ATP assay in MDCKII-MDR1 cells; format: cell-based, canine; conditions: 150min
# P-gp [6] = molecular target: T2, P-gp; conditions: MDCK-MDR1, 150 min
# MRP2 [7] = molecular target: T1, MRP2; assay: cell-based
# P-gp [8] = molecular target: T2, P-gp; assay: cell-based
# LS-180 cells = assay: [14C] erythromycin uptake in treated LS-180 cells; format: cell-based, human; conditions: LS-180 cells treated 72hrs; gemifloxacin 2.5, 5, 7.5μM, rifampin 10μM
# MDCKII-MDR1 cells [9] = assay: Cell proliferative; format: cell-based, canine; conditions: 150min
# MDCKII-MRP2 cells [10] = assay: ATP assay in MDCKII-MRP2 cells; format: cell-based, canine; conditions: 150min
# P-gp [11] = molecular target: T2, P-gp; assay: Cellular accumulation of calcein-AM in MDCKII-MDR1 cells; format: cell-based; conditions: calcein-AM 0.05μM, 15min, quinidine 100μM, gemifloxacin 250μM
# [12] = all other concentrations (1μM to below 1000μM)
# [13] = gemifloxacin 1000μM, data not shown
# [14] = all concentrations 1μM to 1000μM except 1000μM
# T2 sequence (P08183 whole entry): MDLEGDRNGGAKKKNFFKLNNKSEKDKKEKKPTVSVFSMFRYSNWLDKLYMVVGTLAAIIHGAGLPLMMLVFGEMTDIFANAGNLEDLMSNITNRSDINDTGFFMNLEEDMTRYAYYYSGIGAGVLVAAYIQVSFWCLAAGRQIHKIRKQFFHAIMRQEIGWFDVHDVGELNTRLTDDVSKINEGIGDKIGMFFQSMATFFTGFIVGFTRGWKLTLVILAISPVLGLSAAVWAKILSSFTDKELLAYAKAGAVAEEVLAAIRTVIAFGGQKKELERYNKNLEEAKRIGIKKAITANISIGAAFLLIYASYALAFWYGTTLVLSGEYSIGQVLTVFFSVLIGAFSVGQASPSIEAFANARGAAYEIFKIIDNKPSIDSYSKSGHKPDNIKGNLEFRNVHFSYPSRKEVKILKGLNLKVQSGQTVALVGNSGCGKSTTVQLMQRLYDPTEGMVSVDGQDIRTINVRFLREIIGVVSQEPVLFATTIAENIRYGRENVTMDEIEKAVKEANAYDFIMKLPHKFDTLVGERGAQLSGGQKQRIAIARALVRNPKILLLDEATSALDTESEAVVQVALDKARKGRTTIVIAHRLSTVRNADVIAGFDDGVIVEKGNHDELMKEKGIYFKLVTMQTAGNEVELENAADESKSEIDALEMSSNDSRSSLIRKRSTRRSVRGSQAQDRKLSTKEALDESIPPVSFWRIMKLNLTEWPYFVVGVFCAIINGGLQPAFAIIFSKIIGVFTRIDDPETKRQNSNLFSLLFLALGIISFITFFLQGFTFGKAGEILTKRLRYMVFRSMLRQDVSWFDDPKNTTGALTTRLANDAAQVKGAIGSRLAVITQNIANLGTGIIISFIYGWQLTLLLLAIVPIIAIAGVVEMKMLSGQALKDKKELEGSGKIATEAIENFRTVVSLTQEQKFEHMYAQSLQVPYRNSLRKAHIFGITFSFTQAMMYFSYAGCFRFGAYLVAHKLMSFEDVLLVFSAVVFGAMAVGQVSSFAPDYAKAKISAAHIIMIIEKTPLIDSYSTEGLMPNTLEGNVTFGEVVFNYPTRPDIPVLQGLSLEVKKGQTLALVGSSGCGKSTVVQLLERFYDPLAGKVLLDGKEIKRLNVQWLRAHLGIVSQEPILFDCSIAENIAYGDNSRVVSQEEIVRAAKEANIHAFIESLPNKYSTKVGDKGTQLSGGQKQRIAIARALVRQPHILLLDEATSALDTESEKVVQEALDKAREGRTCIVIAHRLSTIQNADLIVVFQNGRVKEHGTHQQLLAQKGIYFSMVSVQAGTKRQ
# T1 sequence (Q92887 whole entry): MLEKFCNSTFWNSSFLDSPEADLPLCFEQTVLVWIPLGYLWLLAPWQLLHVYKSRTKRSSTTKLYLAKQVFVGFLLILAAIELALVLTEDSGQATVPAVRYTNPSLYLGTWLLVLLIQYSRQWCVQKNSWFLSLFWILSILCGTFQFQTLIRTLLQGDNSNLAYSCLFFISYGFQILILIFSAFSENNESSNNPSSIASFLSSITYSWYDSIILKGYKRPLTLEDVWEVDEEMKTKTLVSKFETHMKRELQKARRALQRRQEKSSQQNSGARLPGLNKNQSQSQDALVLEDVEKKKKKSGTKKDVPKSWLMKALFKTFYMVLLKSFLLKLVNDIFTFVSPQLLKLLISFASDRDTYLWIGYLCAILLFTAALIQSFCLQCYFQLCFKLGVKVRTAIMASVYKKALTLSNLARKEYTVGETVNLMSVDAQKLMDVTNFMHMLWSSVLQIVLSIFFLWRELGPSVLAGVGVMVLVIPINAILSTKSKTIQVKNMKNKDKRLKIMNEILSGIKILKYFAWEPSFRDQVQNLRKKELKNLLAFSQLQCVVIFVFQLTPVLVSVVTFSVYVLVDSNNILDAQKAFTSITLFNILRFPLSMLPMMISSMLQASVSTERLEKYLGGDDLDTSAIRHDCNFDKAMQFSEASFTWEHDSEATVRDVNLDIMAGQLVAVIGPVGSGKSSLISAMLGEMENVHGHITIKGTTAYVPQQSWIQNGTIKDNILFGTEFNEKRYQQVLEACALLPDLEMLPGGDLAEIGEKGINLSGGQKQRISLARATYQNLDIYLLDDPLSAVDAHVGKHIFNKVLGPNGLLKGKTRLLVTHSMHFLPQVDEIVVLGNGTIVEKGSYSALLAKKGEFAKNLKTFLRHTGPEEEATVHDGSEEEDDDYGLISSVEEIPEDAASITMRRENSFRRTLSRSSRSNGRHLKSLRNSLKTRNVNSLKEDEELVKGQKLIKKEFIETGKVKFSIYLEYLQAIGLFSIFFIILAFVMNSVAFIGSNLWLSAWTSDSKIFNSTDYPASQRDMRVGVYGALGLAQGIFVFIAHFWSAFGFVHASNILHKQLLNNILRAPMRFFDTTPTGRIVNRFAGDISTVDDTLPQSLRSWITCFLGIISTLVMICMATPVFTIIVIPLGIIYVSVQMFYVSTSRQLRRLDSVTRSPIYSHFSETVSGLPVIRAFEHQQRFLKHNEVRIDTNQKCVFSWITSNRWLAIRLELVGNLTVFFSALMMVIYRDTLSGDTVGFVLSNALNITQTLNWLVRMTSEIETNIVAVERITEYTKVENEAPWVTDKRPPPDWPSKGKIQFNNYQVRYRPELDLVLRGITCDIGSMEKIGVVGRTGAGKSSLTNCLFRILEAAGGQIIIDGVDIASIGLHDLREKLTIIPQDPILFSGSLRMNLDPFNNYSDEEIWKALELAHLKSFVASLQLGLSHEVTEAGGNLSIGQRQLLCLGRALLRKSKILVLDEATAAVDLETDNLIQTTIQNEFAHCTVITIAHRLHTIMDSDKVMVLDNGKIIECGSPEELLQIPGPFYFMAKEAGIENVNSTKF
smiles,measurement,setting,value
"CC[C@H]1OC(=O)[C@H](C)[C@@H](O[C@H]2C[C@@](C)(OC)[C@@H](O)[C@H](C)O2)[C@H](C)[C@@H](O[C@@H]2O[C@H](C)C[C@H](N(C)C)[C@H]2O)[C@](C)(O)C[C@@H](C)C(=O)[C@H](C)[C@@H](O)[C@]1(C)O [[^14C] erythromycin, erythromycin]",Papp A→B at 150 min,MRP2 [1],3.76 ± 1.37 ×10⁻⁶ cm/s
same,Papp B→A at 150 min,MRP2 [1],18.5 ± 1.94 ×10⁻⁶ cm/s
same,efflux ratio at 150 min,MRP2 [1],4.93
same,Papp A→B at 150 min,P-gp [2],2.96 ± 0.37 ×10⁻⁶ cm/s
same,Papp B→A at 150 min,P-gp [2],10.6 ± 0.86 ×10⁻⁶ cm/s
same,efflux ratio at 150 min,P-gp [2],3.56
COc1c(N2CCNC(C)C2)c(F)cc2c(=O)c(C(=O)O)cn(C3CC3)c12 (stereo not drawn) [gatifloxacin],Absolute (oral) bioavailability,[3],96%
CO/N=C1\CN(c2nc3c(cc2F)c(=O)c(C(=O)O)cn3C2CC2)CC1CN (stereo not drawn) [gemifloxacin],Cytotoxicity (MTS),MDCKII-MRP2 cells [4]; [12],non-cytotoxic
same,Decrease in cell viability (MTS),MDCKII-MRP2 cells [4]; [13],~20%
same,Effect on ATP levels compared to control,MDCKII-MDR1 cells [5]; [14],did not significantly alter ATP levels
same,Increase in ATP level,MDCKII-MDR1 cells [5]; [13],~15%
same,Time to peak concentration,[3]; oral administration,0.5 to 2 h
same,Absolute (oral) bioavailability,[3],71%
same,"Apparent permeability of [14C] erythromycin, AP-BL, in presence of test compound",P-gp [6],5.24 ± 0.52 × 10-6 cm/sec
same,"Apparent permeability of [14C] erythromycin, BL-AP, in presence of test compound",P-gp [6],7.38 ± 0.72 × 10-6 cm/sec
same,IC50,MRP2 [7],16 ± 2 µM
same,IC50,P-gp [8],123 ± 2 µM
same,Decrease in cellular accumulation of [14C] erythromycin post treatment,LS-180 cells,~20%
same,Cytotoxicity (MTS),MDCKII-MDR1 cells [9]; [12],non-cytotoxic
same,Decrease in cell viability (MTS),MDCKII-MDR1 cells [9]; [13],~25%
same,Effect on ATP levels compared to control,MDCKII-MRP2 cells [10]; [14],did not significantly alter ATP levels
same,Increase in ATP level,MDCKII-MRP2 cells [10]; [13],~10%
C=C[C@H]1C[N@@]2CC[C@H]1C[C@@H]2[C@@H](O)c1ccnc2ccc(OC)cc12 [quinidine],Increase in intracellular calcein fluorescence,P-gp [11],doubled
CO[C@H]1/C=C/O[C@@]2(C)Oc3c(C)c(O)c4c(O)c(c(/C=N/N5CCN(C)CC5)c(O)c4c3C2=O)NC(=O)/C(C)=C\C=C\[C@H](C)[C@H](O)[C@@H](C)[C@@H](O)[C@@H](C)[C@H](OC(C)=O)[C@@H]1C [rifampin],Decrease in cellular accumulation of [14C] erythromycin post treatment,LS-180 cells,~20%
